In patent US20170334934A1, “Macrocyclic picolinamides as fungicides” (DOW AGROSCIENCES LLC, priority 2014, published 2017) one finds pest or weed control data, which are given here for 21 compounds.

Assay [1] deals with Puccinia triticina. The assay can be described thus: Fungicidal activity: Wheat Brown Rust (PUCCRT), wheat seedlings. The assay is classed as in vivo. The conditions noted are these: for pest or weed control at 121.5 g/ha: Low Volume (121.5 g/H); for pest or weed control at 100 µg/mL: High Volume (100 ppm). The protocol: Technical grades of materials were dissolved in acetone, which were then mixed with nine volumes of water containing 110 ppm Triton X-100. The fungicide solutions were applied onto wheat seedlings using an automated booth sprayer to run-off. All sprayed plants were allowed to air dry prior to further handling. All fungicides were evaluated using the aforementioned method for their activity vs. all target diseases, unless stated otherwise. Wheat leaf blotch and brown rust activity were also evaluated using track spray applications, in which case the fungicides were formulated as EC formulations, containing 0.1% Trycol 5941 in the spray solutions. Wheat plants (variety Yuma) were grown from seed in a greenhouse in 50% mineral soil/50% soil-less Metro mix until the first leaf was fully emerged, with 7-10 seedlings per pot. These plants were inoculated with an aqueous spore suspension of Zymoseptoria tritici either prior to or after fungicide treatments. After inoculation the plants were kept in 100% relative humidity (one day in a dark dew chamber followed by two to three days in a lighted dew chamber at 20° C.) to permit spores to germinate and infect the leaf. The plants were then transferred to a greenhouse set at 20° C. for disease to develop. When disease symptoms were fully expressed on the 1st leaves of untreated plants, infection levels were assessed on a scale of 0 to 100 percent disease severity. Percent disease control was calculated using the ratio of disease severity on treated plants relative to untreated plants. Example B: Evaluation of Fungicidal Activity: Wheat Brown Rust (Puccinia triticina; Synonym: Puccinia recondita f. sp. tritici; Bayer Code PUCCRT) Wheat plants (variety Yuma) were grown from seed in a greenhouse in 50% mineral soil/50% soil-less Metro mix until the first leaf was fully emerged, with 7-10 seedlings per pot. These plants were inoculated with an aqueous spore suspension of Puccinia triticina either prior to or after fungicide treatments. After inoculation the plants were kept in a dark dew room at 22° C. with 100% relative humidity overnight to permit spores to germinate and infect the leaf. The plants were then transferred to a greenhouse set at 24° C. for disease to develop. Fungicide formulation, application and disease assessment followed the procedures as described in the Example A.

The test system of assay [2] is Mycosphaerella graminicola; Anamorph: Zymoseptoria tritici. Kind of assay: Fungicidal activity: Leaf Blotch of Wheat (SEPTTR), wheat seedlings. It counts as in vivo. The conditions noted are these: wheat; for pest or weed control at 121.5 g/ha: Low Volume (121.5 g/H); for pest or weed control at 100 µg/mL: High Volume (100 ppm). The protocol: Example A: Evaluation of Fungicidal Activity: Leaf Blotch of Wheat (Mycosphaerella graminicola; Anamorph: Zymoseptoria tritici; Bayer Code […]) Technical grades of materials were dissolved in acetone, which were then mixed with nine volumes of water containing 110 ppm Triton X-100. The fungicide solutions were applied onto wheat seedlings using an automated booth sprayer to run-off. All sprayed plants were allowed to air dry prior to further handling. All fungicides were evaluated using the aforementioned method for their activity vs. all target diseases, unless stated otherwise. Wheat leaf blotch and brown rust activity were also evaluated using track spray applications, in which case the fungicides were formulated as EC formulations, containing 0.1% Trycol 5941 in the spray solutions. Wheat plants (variety Yuma) were grown from seed in a greenhouse in 50% mineral soil/50% soil-less Metro mix until the first leaf was fully emerged, with 7-10 seedlings per pot. These plants were inoculated with an aqueous spore suspension of Zymoseptoria tritici either prior to or after fungicide treatments. After inoculation the plants were kept in 100% relative humidity (one day in a dark dew chamber followed by two to three days in a lighted dew chamber at 20° C.) to permit spores to germinate and infect the leaf. The plants were then transferred to a greenhouse set at 20° C. for disease to develop. When disease symptoms were fully expressed on the 1st leaves of untreated plants, infection levels were assessed on a scale of 0 to 100 percent disease severity. Percent disease control was calculated using the ratio of disease severity on treated plants relative to untreated plants.

[3] abbreviates: 24 h, 1 Day Protectant, read-out: PUCCRT disease control rating, 1DP.
The mark [4] stands for this setting: 72 h, 3 Day Curative, read-out: PUCCRT disease control rating, 3DC.
Where [5] appears, read: 24 h, 1 Day Protectant, read-out: SEPTTR disease control rating, 1DP.
The mark [6] stands for this setting: 72 h, 3 Day Curative, read-out: SEPTTR disease control rating, 3DC.

Read-outs that look alike come from different tables or passages of the source. Bounds are passed on as bounds.

Regarding `COc1ccnc(C(=O)N[C@H]2CCOC[C@@H](OC(=O)C(C)C)[C@H](C)OC2=O)c1OCOC(C)=O` [Compound 98], the pest or weed control at 121.5 g/ha in assay [1] (setting [3]), in assay [1] (setting [4]), in assay [2] (setting [5]) and in assay [2] (setting [6]) was < 70% in each case.

Regarding `COc1ccnc(C(=O)N[C@H]2CCOC[C@@H](OCC(C)C)[C@H](C)OC2=O)c1O` [Compound 67], the pest or weed control at 100 µg/mL in assay [1] (setting [3]), in assay [1] (setting [4]), in assay [2] (setting [5]) and in assay [2] (setting [6]) was > 70% throughout.

With `COc1ccnc(C(=O)N[C@H]2CCOC[C@@H](OCc3ccccc3)[C@H](C)OC2=O)c1O` [Compound 66], the pest or weed control at 100 µg/mL is > 70% in assay [1] (setting [3]), > 70% in assay [1] (setting [4]), < 70% in assay [2] (setting [5]) and < 70% in assay [2] (setting [6]).

Take `CCCO[C@H]1[C@H](C)OC(=O)[C@@H](NC(=O)c2nccc(OC)c2OCOC(C)=O)CCO[C@@H]1Cc1ccc(F)cc1` [Compound 79, ((2-(((2R,3S,4S,7S)-2-(4-fluorobenzyl)-4-methyl-6-oxo-3-propoxy-1,5-dioxonan-7-yl)carbamoyl)-4-methoxypyridin-3-yl)oxy)methyl acetate]: the pest or weed control at 121.5 g/ha in assay [1] (setting [3]), in assay [1] (setting [4]), in assay [2] (setting [5]) and in assay [2] (setting [6]) was > 70% throughout.

In the case of `COc1ccnc(C(=O)N[C@H]2CCOC[C@@H](OC(=O)C(C)C)[C@H](C)OC2=O)c1O` [Compound 70], the pest or weed control at 100 µg/mL in assay [1] (setting [3]), in assay [1] (setting [4]), in assay [2] (setting [5]) and in assay [2] (setting [6]) was < 70% each time.

For `C=C(C)CO[C@H]1[C@H](C)OC(=O)[C@@H](NC(=O)c2nccc(OC)c2OC(C)=O)CCO[C@@H]1CC` [Compound 92], the pest or weed control at 121.5 g/ha in assay [1] (setting [3]) was > 70%; in assay [1] (setting [4]) it was > 70%; in assay [2] (setting [5]), < 70%; in assay [2] (setting [6]), < 70%.

Regarding `COc1ccc(C[C@H]2OCC[C@H](NC(=O)c3nccc(OC)c3OCOC(C)=O)C(=O)O[C@@H](C)[C@@H]2Oc2ccccc2)cc1` [Compound 87], the pest or weed control at 121.5 g/ha in assay [1] (setting [3]) is > 70%; in assay [1] (setting [4]) it was > 70%; in assay [2] (setting [5]), > 70%; in assay [2] (setting [6]), < 70%.

In the case of `CC[C@H]1OCC[C@H](NC(=O)c2nccc(OC)c2OCOC(C)=O)C(=O)O[C@@H](C)[C@@H]1Oc1ccccc1` [Compound 90], the pest or weed control at 121.5 g/ha in assay [1] (setting [3]), in assay [1] (setting [4]), in assay [2] (setting [5]) and in assay [2] (setting [6]) was > 70% in each case.

Consider `COc1ccnc(C(=O)N[C@H]2CCOC[C@@H](Oc3ccccc3)[C@H](C)OC2=O)c1OC(C)=O` [Compound 100], for which the pest or weed control at 121.5 g/ha in assay [1] (setting [3]) was > 70%; in assay [1] (setting [4]) it was > 70%; in assay [2] (setting [5]), < 70%; in assay [2] (setting [6]), > 70%.

`COc1ccc(C[C@H]2OCC[C@H](NC(=O)c3nccc(OC)c3OCOC(C)=O)C(=O)O[C@@H](C)[C@@H]2OCC2CC2)cc1` [Compound 86]: the pest or weed control at 121.5 g/ha in assay [1] (setting [3]) was > 70%; in assay [1] (setting [4]) it was > 70%; in assay [2] (setting [5]), > 70%; in assay [2] (setting [6]), < 70%.

With `COc1ccnc(C(=O)N[C@H]2CCOC[C@@H](Oc3ccccc3)[C@H](C)OC2=O)c1O` [Compound 69], the pest or weed control at 100 µg/mL in assay [1] (setting [3]), in assay [1] (setting [4]), in assay [2] (setting [5]) and in assay [2] (setting [6]) was > 70% in each case.

On to `COc1ccnc(C(=O)N[C@H]2CCO[C@H](Cc3ccc(F)cc3)[C@@H](OCC(C)C)[C@H](C)OC2=O)c1O` [Compound 53], for which the pest or weed control at 100 µg/mL in assay [1] (setting [3]), in assay [1] (setting [4]), in assay [2] (setting [5]) and in assay [2] (setting [6]) was > 70% in each case.

As for `COc1ccnc(C(=O)N[C@H]2CCO[C@H](Cc3ccc(F)cc3)[C@@H](OC(=O)C(C)C)[C@H](C)OC2=O)c1O` [Compound 54], the pest or weed control at 100 µg/mL in assay [1] (setting [3]), in assay [1] (setting [4]), in assay [2] (setting [5]) and in assay [2] (setting [6]) was > 70% in each case.

`COc1ccnc(C(=O)N[C@H]2CCO[C@H](Cc3ccccc3)[C@@H](OCC(C)C)[C@H](C)OC2=O)c1OCOC(C)=O` [Compound 72]: the pest or weed control at 121.5 g/ha in assay [1] (setting [3]), in assay [1] (setting [4]), in assay [2] (setting [5]) and in assay [2] (setting [6]) was > 70% in each case.

For the compound `COc1ccnc(C(=O)N[C@H]2CCO[C@H](Cc3ccccc3)[C@@H](OCC(C)C)[C@H](C)OC2=O)c1OC(C)=O` [Compound 71], the pest or weed control at 121.5 g/ha in assay [1] (setting [3]), in assay [1] (setting [4]), in assay [2] (setting [5]) and in assay [2] (setting [6]) was > 70% in each case.

Regarding `COc1ccnc(C(=O)N[C@H]2CCO[C@H](CC3CCCC3)[C@@H](Oc3ccccc3)[C@H](C)OC2=O)c1O` [Compound 58], the pest or weed control at 100 µg/mL in assay [1] (setting [3]), in assay [1] (setting [4]), in assay [2] (setting [5]) and in assay [2] (setting [6]) was > 70% in each case.

For `CC[C@H]1OCC[C@H](NC(=O)c2nccc(OC)c2OCOC(C)=O)C(=O)O[C@@H](C)[C@@H]1OCC(C)C` [Compound 89], the pest or weed control at 121.5 g/ha in assay [1] (setting [3]), in assay [1] (setting [4]), in assay [2] (setting [5]) and in assay [2] (setting [6]) was > 70% in each case.

For `C=C(C)CO[C@H]1[C@H](C)OC(=O)[C@@H](NC(=O)c2nccc(OC)c2O)CCO[C@@H]1CC` [Compound 61], the pest or weed control at 100 µg/mL was > 70% in assay [1] (setting [3]), > 70% in assay [1] (setting [4]), < 70% in assay [2] (setting [5]) and > 70% in assay [2] (setting [6]).

`CC[C@H]1OCC[C@H](NC(=O)c2nccc(OC)c2OCOC(C)=O)C(=O)O[C@@H](C)[C@@H]1Oc1ccc(F)cc1` [Compound 91]: the pest or weed control at 121.5 g/ha in assay [1] (setting [3]), in assay [1] (setting [4]), in assay [2] (setting [5]) and in assay [2] (setting [6]) was > 70% throughout.

Turning to `CC[C@H]1OCC[C@H](NC(=O)c2nccc(OC)c2O)C(=O)O[C@@H](C)[C@@H]1Oc1ccccc1` [Compound 63], the pest or weed control at 100 µg/mL in assay [1] (setting [3]), in assay [1] (setting [4]), in assay [2] (setting [5]) and in assay [2] (setting [6]) was > 70% each time.

For `C=CCO[C@H]1[C@H](C)OC(=O)[C@@H](NC(=O)c2nccc(OC)c2O)CCO[C@@H]1Cc1ccc(F)cc1` [Compound 55, N-((2R,3S,4S,7S)-3-(allyloxy)-2-(4-fluorobenzyl)-4-methyl-6-oxo-1,5-dioxonan-7-yl)-3-hydroxy-4-methoxypicolinamide], the pest or weed control at 100 µg/mL in assay [1] (setting [3]), in assay [1] (setting [4]), in assay [2] (setting [5]) and in assay [2] (setting [6]) was > 70% each time.
